The target of one assay is T1, SIK1 (Homo sapiens, UniProt P57059).
T1 construct: purchased Carna Biosciences 02-131
The assay is described as follows: ADP-Glo kinase assay, SIK1. It is filed as biochemical. Summed up: (§1)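 Luminescent ADP-Glo readout of ADP formed. Enzyme-substrate mix with ATP, reaction 120 min at RT, then 40 min ATP depletion and 30 min detection. Controls were 1% DMSO (negative) and 10 μM staurosporine (positive), both final.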

A further assay deals with T2, SIK2 (Homo sapiens, UniProt Q9H0K1).
T2 construct: purchased ThermoFisher Scientific PV4792
The assay is described as follows: ADP-Glo kinase assay, SIK2. It is filed as biochemical. Summed up: as §1
A general note: ADP-Glo turns the ADP formed in a reaction into a luminescent signal.

Another assay deals with T3, SIK3 (Homo sapiens, UniProt Q9Y2K2).
T3 construct: purchased SignalChem S12-11G-100
The assay is described as follows: ADP-Glo kinase assay, SIK3. It is filed as biochemical. In outline: as §1

The subject of assay [1] is LPS-induced TNFα in monocytes. The experiment in a line: Monocytes assay: LPS-triggered TNFα (ELISA). The following applies: Homo sapiens, Monocyte, LPS-triggered TNFα inhibition. It is filed as cell-based, human. The method, then:
This assay evaluates illustrative compounds of the invention for their inhibition of LPS-induced TNFα and LPS triggered IL-10 secretion in monocytes.
PBMCs are isolated from human blood samples (buffycoats). The buffy coat is aseptically transferred into a 50 mL Falcon tube, and diluted 1/2 in PBS. Falcon tubes are filled with 20 mL Lymphoprep™, on top of which 25 mL of the buffy coat is carefully added, tubes are centrifuged for 35 min at 400 g in temperature controlled centrifuge, without brake, at 25° C. PBMCs are aspirated from the white interface layer between sample and Lymphoprep™. PBMCs are washed five times in PBS.
PBMCs are centrifuged at 300×g for 10 min and resuspended at a density of 1.0*10^7 cells/80 μL Miltenyi buffer (PBS, pH 7.4, 1% FBS, 2 mM EDTA).
Starting from this point of the protocol all steps are performed on ice. 20 μL of CD14+ micro-beads are added per 1.0*10^7 cells, the tube is mixed and incubated for 15 min in the fridge at 4° C. Cell suspension volume is adjusted to total volume of 100 mL using Miltenyi buffer, mixed gently and subsequently centrifuged for 10 min at 300×g. Supernatant is discarded and cell pellet is resuspended in 12 mL of Miltenyi buffer.
Four LS columns are placed in the MACS Separator (magnet) from Miltenyi Biotec, and are prewet by rinsing with 3 mL of MACS buffer per column. Three mL of cell suspension is added onto the column (max 1*10^8 of labelled cells/column), and columns are subsequently washed 3 times with 3 mL of Miltenyi buffer.
The columns are removed from the magnets, and 5 mL of Miltenyi buffer are added to the column to flush out the CD14+ fraction by pushing the plunger into the column. The flushed fractions are collected in a fresh 50 mL Falcon and volume is adjusted to 30 mL using Miltenyi buffer, cells are centrifuged for 10 min at 300×g. The obtained cell pellet is resuspended in 10 mL RPMI w/o FBS, and cell density is determined using a hematologic analyser (Sysmex XS-500i).
A compound dilution plate is made in 100% DMSO by 3-fold dilution of 10 mM stock solution. An intermediate dilution plate (10× final concentration) is made by diluting the compound dilution plate 50-fold in RPMI medium.
10 μL of the 10× final concentration compound is added to the cells and incubated for 1 h at 37° C. before addition of trigger. No trigger conditions/trigger conditions are spiked with equal final DMSO concentrations of 0.2% DMSO. 10 μL of 10×LPS (final conc. 200 ng/mL) solution are added to all wells except for the ‘no trigger wells’ where 10 μL medium is added. Supernatant is collected after 4 h of LPS triggering.
The plate is then washed once with PBST (PBS+0.05% Tween20) and once with PBS followed by the addition of 100 μL of blocking buffer (1% Bovine Serum Albumin (BSA)-5% Sucrose) and plates are sealed and incubated for at least 4 h at RT. After washing the plate once with PBST and once with PBS, […]. Plates are washed twice with PBST, and once with PBS, after which 35 μL of the detection antibody is added (final concentration 0.25 μg/mL diluted in dilution buffer) and plates are incubated for at least 2 h at RT. Plates are washed twice with PBST, and once with PBS, whereafter 35 μL of Strep-HRP conjugate (0.5 μg/mL final concentration diluted in dilution buffer) is added. Plates are incubated in the dark, at RT for at least 45 min but no longer than 1 h. Plates are washed twice with PBST, and once with PBS. Thereafter, 50 μL of luminol substrate is added to each well (prepared according to manufacturer's instructions), and incubated for 5 min at RT protected from light.
To measure the inhibition of LPS induced TNFα, percentage inhibition (PIN) values are calculated for all concentrations tested, compared to controls.
(In general: ELISA stands for enzyme-linked immunosorbent assay.)

Where only a bound is given, the exact number is not on record here.

T2 sequence (Q9H0K1 whole entry): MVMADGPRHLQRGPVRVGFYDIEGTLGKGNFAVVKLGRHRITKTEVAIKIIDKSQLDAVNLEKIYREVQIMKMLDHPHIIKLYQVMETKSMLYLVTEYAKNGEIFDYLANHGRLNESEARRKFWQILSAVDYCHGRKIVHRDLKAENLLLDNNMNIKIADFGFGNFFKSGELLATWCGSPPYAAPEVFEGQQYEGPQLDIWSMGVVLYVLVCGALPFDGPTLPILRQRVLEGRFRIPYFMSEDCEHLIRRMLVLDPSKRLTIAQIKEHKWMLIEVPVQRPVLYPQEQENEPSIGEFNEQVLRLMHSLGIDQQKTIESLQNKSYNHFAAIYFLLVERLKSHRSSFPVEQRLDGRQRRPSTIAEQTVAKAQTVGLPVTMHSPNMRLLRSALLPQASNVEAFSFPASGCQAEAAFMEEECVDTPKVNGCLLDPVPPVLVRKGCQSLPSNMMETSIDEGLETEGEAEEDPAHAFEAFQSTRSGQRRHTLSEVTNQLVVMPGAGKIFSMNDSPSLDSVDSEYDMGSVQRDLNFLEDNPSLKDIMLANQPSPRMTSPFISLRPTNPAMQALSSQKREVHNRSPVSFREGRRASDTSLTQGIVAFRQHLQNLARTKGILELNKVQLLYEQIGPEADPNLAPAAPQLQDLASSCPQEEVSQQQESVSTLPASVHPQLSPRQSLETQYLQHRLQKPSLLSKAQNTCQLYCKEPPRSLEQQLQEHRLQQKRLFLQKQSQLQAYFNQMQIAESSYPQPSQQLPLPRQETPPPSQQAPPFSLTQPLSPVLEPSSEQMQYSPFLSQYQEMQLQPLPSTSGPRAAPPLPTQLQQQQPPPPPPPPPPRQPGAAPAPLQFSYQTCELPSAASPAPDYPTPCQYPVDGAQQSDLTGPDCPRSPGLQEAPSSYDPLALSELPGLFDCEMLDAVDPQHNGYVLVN
T1 sequence (P57059 whole entry): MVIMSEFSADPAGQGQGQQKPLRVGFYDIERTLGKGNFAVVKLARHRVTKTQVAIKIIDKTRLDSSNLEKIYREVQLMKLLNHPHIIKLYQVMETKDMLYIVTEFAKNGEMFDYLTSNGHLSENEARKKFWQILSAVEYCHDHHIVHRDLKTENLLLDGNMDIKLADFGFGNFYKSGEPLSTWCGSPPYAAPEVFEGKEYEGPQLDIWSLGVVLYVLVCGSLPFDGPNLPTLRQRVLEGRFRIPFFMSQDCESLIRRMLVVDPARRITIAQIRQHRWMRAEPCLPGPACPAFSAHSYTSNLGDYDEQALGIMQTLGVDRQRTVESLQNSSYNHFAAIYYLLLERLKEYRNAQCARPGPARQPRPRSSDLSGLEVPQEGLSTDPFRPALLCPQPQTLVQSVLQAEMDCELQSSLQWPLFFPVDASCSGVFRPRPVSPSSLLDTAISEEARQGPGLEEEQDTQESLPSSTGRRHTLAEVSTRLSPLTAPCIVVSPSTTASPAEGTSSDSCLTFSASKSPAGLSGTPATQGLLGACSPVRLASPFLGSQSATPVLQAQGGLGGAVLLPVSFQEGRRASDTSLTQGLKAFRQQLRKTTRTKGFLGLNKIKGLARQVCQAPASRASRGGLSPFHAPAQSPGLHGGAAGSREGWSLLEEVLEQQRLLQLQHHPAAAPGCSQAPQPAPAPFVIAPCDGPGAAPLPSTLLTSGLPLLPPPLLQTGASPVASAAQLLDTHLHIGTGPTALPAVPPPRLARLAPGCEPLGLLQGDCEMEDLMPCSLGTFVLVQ
T3 sequence (Q9Y2K2 59-365 limits assumed): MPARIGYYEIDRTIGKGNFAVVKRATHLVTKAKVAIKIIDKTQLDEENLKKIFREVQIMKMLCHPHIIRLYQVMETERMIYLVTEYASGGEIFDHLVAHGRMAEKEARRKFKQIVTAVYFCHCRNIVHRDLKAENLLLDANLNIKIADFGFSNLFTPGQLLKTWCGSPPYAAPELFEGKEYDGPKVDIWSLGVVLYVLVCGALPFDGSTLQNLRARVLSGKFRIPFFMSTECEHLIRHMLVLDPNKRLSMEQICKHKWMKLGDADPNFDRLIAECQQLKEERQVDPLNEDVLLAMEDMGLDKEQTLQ

Take `CNC(=O)COCC(C)(C)c1ccc2c(-c3cc(OC)c(C(=O)N[C@@H]4C[C@@H]4F)c(OC(F)F)c3)cnn2c1` [Cpd 253, 2-(difluoromethoxy)-4-[6-[1,1-dimethyl-2-[2-(methylamino)-2-oxo-ethoxy]ethyl]pyrazolo[1,5-a]pyridin-3-yl]-N-[(1R,2S)-2-fluorocyclopropyl]-6-methoxy-benzamide]: the values for the IC50 on SIK1, at SIK2 and against SIK3 were above 500 nM, above 500 nM and 0.01 to 10 nM, respectively. The molecule further came in with an EC50 in assay [1] of 100 to 1000 nM.

On to `COc1cc(-c2cnc3cc(C(C)(O)CC#N)ccn23)cc(OC(F)F)c1C(=O)NC1CC1` (stereo not drawn) [Cpd 179, 4-[7-(2-cyano-1-hydroxy-1-methyl-ethyl)imidazo[1,2-a]pyridin-3-yl]-N-cyclopropyl-2-(difluoromethoxy)-6-methoxy-benzamide], for which the IC50 against SIK1, on SIK2 and against SIK3 was 0.01 to 10 nM in each case. This molecule showed an EC50 in assay [1] of 0.1 to 100 nM.

Take `COc1cc(-c2cnc3cc(C(C)(O)CN4CCCCC4)ccn23)cc(OC(F)F)c1C(=O)NC1CC1` (stereo not drawn) [Cpd 185, N-cyclopropyl-2-(difluoromethoxy)-4-[7-[1-hydroxy-1-methyl-2-(1-piperidyl)ethyl]imidazo[1,2-a]pyridin-3-yl]-6-methoxy-benzamide]: the IC50 at SIK1 was above 500 nM; against SIK2, above 500 nM; against SIK3, 10 to 100 nM. The molecule also showed an EC50 in assay [1] of 100 to 1000 nM.

`COc1cn2c(-c3cc(OC)c(C(=O)NC4CC4)c(OC(F)F)c3)cnc2cc1C1CCOCC1` [Cpd 167, N-cyclopropyl-2-(difluoromethoxy)-6-methoxy-4-(6-methoxy-7-tetrahydropyran-4-yl-imidazo[1,2-a]pyridin-3-yl)benzamide]: the IC50 was above 500 nM on SIK1, 100 to 500 nM against SIK2 and 10 to 100 nM at SIK3. In addition, the EC50 in assay [1] was in the range of 1000 to 5000 nM.

Take `COc1cc(-c2cnn3cc(C(C)(C)COCC4COC4)ccc23)cc(OC(F)F)c1C(=O)N[C@@H]1C[C@@H]1F` [Cpd 262, 2-(difluoromethoxy)-4-[6-[1,1-dimethyl-2-(oxetan-3-ylmethoxy)ethyl]pyrazolo[1,5-a]pyridin-3-yl]-N-[(1R,2S)-2-fluorocyclopropyl]-6-methoxy-benzamide]: the IC50 on SIK1 was above 500 nM; against SIK2, above 500 nM; on SIK3, 0.01 to 10 nM. The EC50 in assay [1] was in the range of 100 to 1000 nM.

Turning to `CNC(=O)C1(c2ccc3c(-c4cc(OC)c(C(=O)N[C@@H]5C[C@@H]5F)c(OC(F)F)c4)cnn3c2)CCC1` [Cpd 273, 2-(difluoromethoxy)-N-[(1R,2S)-2-fluorocyclopropyl]-6-methoxy-4-[6-[1-(methylcarbamoyl)cyclobutyl]pyrazolo[1,5-a]pyridin-3-yl]benzamide], the IC50 is above 500 nM against SIK1, above 500 nM on SIK2 and 10 to 100 nM against SIK3. The EC50 in assay [1] was 100 to 1000 nM.

As to `COc1cc(-c2cnc3cc(C(C)(O)CN4CCOCC4)ccn23)cc(OC(F)F)c1C(=O)NC1CC1` (stereo not drawn) [Cpd 178, N-cyclopropyl-2-(difluoromethoxy)-4-[7-(1-hydroxy-1-methyl-2-morpholino-ethyl)imidazo[1,2-a]pyridin-3-yl]-6-methoxy-benzamide], the figures for the IC50 against SIK1, on SIK2 and at SIK3 were above 500 nM, above 500 nM and 10 to 100 nM, respectively. In assay [1], the EC50 was in the range of 100 to 1000 nM.

In the case of `COc1cc(-c2cnn3cc(C(C)(C)OCCN4CCOCC4)ccc23)cc(OC(F)F)c1C(=O)N[C@@H]1C[C@@H]1F` [Cpd 255, 2-(difluoromethoxy)-N-[(1R,2S)-2-fluorocyclopropyl]-6-methoxy-4-[6-[1-methyl-1-(2-morpholinoethoxy)ethyl]pyrazolo[1,5-a]pyridin-3-yl]benzamide], the IC50 at SIK1 is above 500 nM; against SIK2, above 500 nM; against SIK3, 10 to 100 nM. The same molecule had an EC50 in assay [1] of 100 to 1000 nM.

Regarding `COc1cc(-c2cnc3cc(C(C)(C)C#N)c(OCCO)cn23)cc(OC(F)F)c1C(=O)NC1CC1` [Cpd 221, 4-[7-(1-cyano-1-methyl-ethyl)-6-(2-hydroxyethoxy)imidazo[1,2-a]pyridin-3-yl]-N-cyclopropyl-2-(difluoromethoxy)-6-methoxy-benzamide], the IC50 on SIK1 is above 500 nM; against SIK2 it was above 500 nM; at SIK3, 10 to 100 nM. Besides, the EC50 in assay [1] fell in the range of 100 to 1000 nM.

Turning to `COc1cc(-c2cnc3cc(C(C)(O)Cn4cccn4)ccn23)cc(OC(F)F)c1C(=O)NC1CC1` (stereo not drawn) [Cpd 192, N-cyclopropyl-2-(difluoromethoxy)-4-[7-(1-hydroxy-1-methyl-2-pyrazol-1-yl-ethyl)imidazo[1,2-a]pyridin-3-yl]-6-methoxy-benzamide], the IC50 was above 500 nM against SIK1, above 500 nM against SIK2 and 10 to 100 nM at SIK3. The EC50 in assay [1] is 100 to 1000 nM.

With `COc1cc(-c2cnc3cc(C4CCCN4)ccn23)cc(OC(F)F)c1C(=O)NC1CC1` (stereo not drawn) [Cpd 188, N-cyclopropyl-2-(difluoromethoxy)-6-methoxy-4-(7-pyrrolidin-2-ylimidazo[1,2-a]pyridin-3-yl)benzamide], the IC50 on SIK1 is above 500 nM; on SIK2, 100 to 500 nM; on SIK3, 10 to 100 nM. Also, the EC50 in assay [1] was 100 to 1000 nM.

With `COc1cc(-c2cnn3cc(C4(C#N)CCC4)ccc23)cc(OC(F)F)c1C(=O)N[C@@H]1C[C@@H]1F` [Cpd 250, 4-[6-(1-cyanocyclobutyl)pyrazolo[1,5-a]pyridin-3-yl]-2-(difluoromethoxy)-N-[(1R,2S)-2-fluorocyclopropyl]-6-methoxy-benzamide], the IC50 at SIK1 was above 500 nM; against SIK2, 100 to 500 nM; at SIK3, 0.01 to 10 nM. The EC50 in assay [1] is 100 to 1000 nM.

As for `COc1cc(-c2cnn3cc(C(C)(C)NCCO)ccc23)cc(OC(F)F)c1C(=O)N[C@@H]1C[C@@H]1F` [Cpd 268, 2-(difluoromethoxy)-N-[(1R,2S)-2-fluorocyclopropyl]-4-[6-[1-(2-hydroxyethylamino)-1-methyl-ethyl]pyrazolo[1,5-a]pyridin-3-yl]-6-methoxy-benzamide], the values for the IC50 on SIK1, at SIK2 and against SIK3 were above 500 nM, above 500 nM and 10 to 100 nM, respectively. In assay [1], the EC50 was in the range of 100 to 1000 nM.

For the molecule `COc1cc(-c2cnn3cc(C(C)(C)c4nc(C)no4)ccc23)cc(OC(F)F)c1C(=O)NC1CC1` [Cpd 248, N-cyclopropyl-2-(difluoromethoxy)-6-methoxy-4-[6-[1-methyl-1-(3-methyl-1,2,4-oxadiazol-5-yl)ethyl]pyrazolo[1,5-a]pyridin-3-yl]benzamide], the IC50 was above 500 nM against SIK1, above 500 nM at SIK2 and 10 to 100 nM against SIK3. In addition, the EC50 in assay [1] lay within 100 to 1000 nM.

With `COc1cc(-c2cnc3cc(C4(OC)COC4)ccn23)cc(OC(F)F)c1C(=O)NC1CC1` [Cpd 212, N-cyclopropyl-2-(difluoromethoxy)-6-methoxy-4-[7-(3-methoxyoxetan-3-yl)imidazo[1,2-a]pyridin-3-yl]benzamide], the results for the IC50 against SIK1, against SIK2 and on SIK3 were above 500 nM, above 500 nM and 10 to 100 nM, respectively. In assay [1], this molecule came in with a 50% effective concentration (EC50) of 100 to 1000 nM.

Broadly, the IC50 is the point on the concentration scale where inhibition reaches its midpoint. Low readings indicate greater potency in that assay, high ones weaker potency in that assay. In general, EC50 refers to the concentration at which the effect is half-maximal. Low readings indicate a more potent agent, high ones a less potent agent.
